In patent publication US6667387B1, “HCV core peptides” (priority 1992, dated 2003):
Ends that are not written are not given here.

Legend:
[1] = system: antibodies in sera from HCV-seropositive donors; assay: ELISA with HCV antibody-positive sera (biotinylated peptides on streptavidin- or avidin-coated plates, unbiotinylated peptides coated directly); type: binding, human; details: for optical density (450 nm): 20-fold dilution; for PEPTIDE ELISA (O.D.): Table 12, biotinylated 20-mers
Experimental: (§1) Where peptides were to be coated directly, stock solutions of the peptides were diluted in sodium carbonate buffer, pH 9.6 and used to coat polystyrene microtiter plates at a peptide concentration of 2 to 5 micrograms per milliliter for 1 hour at 37° C.
(§2) In cases where biotinylated peptides were to be evaluated, plates were first coated with streptavidin in sodium carbonate buffer, pH 9.6 at a concentration of 3 micrograms per milliliter for 1 hour at 37° C. The plates were then washed to remove excess, unbound protein. A working solution of the biotinylated peptide at 1 microgram per milliliter in sodium carbonate buffer was then added to the wells of the microtiter plate and incubated for 1 hours at 37° C.
(§3) Once the plates had been coated with antigen, any remaining free binding sites on the plastic were blocked with casein. After washing, a dilution of the appropriate antisera, usually 1:100, was added to the wells of the plates and incubated for 1 hour at 37° C.
(§4) After washing to remove unbound material, specific antibody binding was detected by incubating the plates with goat anti-human immunoglobulin antibodies conjugated to the enzyme horseradish peroxidase. Following removal of unbound conjugate by washing, a solution containing H2O2 and 3,3′,5,5′-tetramethylbenzidine was added.
(§5) Reactions were stopped after a suitable interval by addition of sulfuric acid. […] Absorbance measurements were made at a wavelength of 450 nanometers and all data are expressed as an optical density value at this wavelength.
The unbiotinylated peptides were adsorbed onto the wells of polystyrene microtiter plates at a concentration of 3 micrograms per milliliter.
The biotinylated peptides were bound at a concentration of 1 microgram per milliliter to streptavidin-coated microtiter plates. Sera known to contain antibodies to these peptides were used for the evaluation and were tested at a 20-fold dilution.
To investigate further the enhanced antibody recognition of biotinylated HCV peptides bound to streptavidin or avidin as compared to direct adsorption on plastic, the influence of peptide coating concentration was investigated. Three peptides (HCV peptides II, XI, and XVI) were coated in concentrations ranging from 10 nanograms per milliliter to 3 micrograms per milliliter in a volume of 200 microliters per microtiter plate well. For direct coating, the unbiotinylated versions of these peptides were used. The biotinylated versions of these peptides were used to coat wells to which streptavidin had previously been adsorbed. Sera known to contain antibodies to these peptides were used at a dilution of 1 to 100 to evaluate the magnitude of antibody binding.
(§6) Unbiotinylated HCV peptide I was coated directly onto the wells of a polystyrene ELISA plate at a concentration of 3 micrograms per milliliter in sodium carbonate buffer, pH 9.6. Biotinylated HCV peptide I was bound to streptavidin-coated wells using a stock solution containing the peptide at a concentration of 1 microgram per milliliter. The resulting plates were then incubated in parallel with a panel of sera from HCV-seropositive donors. […] Two of the sera (8326 and 8244) recognize the biotinylated version of this peptide far better than the unbiotinylated version. The specificity of the antibody reaction is also reflected by the low optical density values obtained for 5 serum samples from uninfected donors (F88, F89, F76, F136, and F6).
To determine how well biotinylated peptides would function in a mixture when bound to streptavidin- or avidin-coated plates, two mixtures were made of the N-terminally biotinylated versions of the HIV-1 peptides TM-HIV-1 (hereabove referred to as 1a.1) and V3-nm (hereabove referred to as 1b.4), the HIV-2 peptide TM-HIV-2 (hereabove referred to as 2a), and the hepatitis C virus peptides II, IX, and XVIII. […]

[2] = ELISA with seronegative / negative control sera (specificity); type: binding, human; details: negative serum
Experimental: as §1, §2, §3, §4, §5, §6
To determine how well biotinylated peptides would function in a mixture when bound to streptavidin- or avidin-coated plates, two mixtures were made of the N-terminally biotinylated versions of the HIV-1 peptides TM-HIV-1 (hereabove referred to as 1a.1) and V3-nm (hereabove referred to as 1b.4), the HIV-2 peptide TM-HIV-2 (hereabove referred to as 2a), and the hepatitis C virus peptides II, IX, and XVIII. Mixture A contained each of the six biotinylated peptides at a concentration of 1 microgram per milliliter (6 micrograms per milliliter peptide, total) while in mixture B, each peptide was present at a concentration of 0.1 microgram per milliliter (0.6 microgram per milliliter peptide, total). The individual peptides were coated at a concentration of 1 microgram per milliliter. For purposes of comparison, mixtures A and B were also coated directly onto the wells of a microtiter plate. Samples from HIV-1, HIV-2, and HCV-seropositive donors were tested and compared to sera from seronegative blood donors. A cut-off absorbance value of 0.250 was used to determine whether a reaction was positive or negative. Absorbance values equal or greater than 0.250 were considered positive while absorbance values below this value were considered negative.

RNTNRRPQDVKFPGGGQIVG
optical density (450 nm) ([1]; Table 4D, serum 8241): 1.219
optical density (450 nm) ([1]; Table 4D, serum 8242): 1.976
optical density (450 nm) ([1]; Table 4D, serum 8243): 1.859
optical density (450 nm) ([1]; Table 4D, serum 8247): 1.072
optical density (450 nm) ([1]; Table 4D, serum 8248): 2.742
optical density (450 nm) ([1]; Table 4D, serum 8250): 2.471
optical density (450 nm) ([1]; Table 4D, serum 8271): 1.471
optical density (450 nm) ([1]; Table 4D, serum 8272): 2.471
optical density (450 nm) ([1]; Table 4D, serum 8273): 1.543
optical density (450 nm) ([1]; Table 4D, serum 8274): 2.503
optical density (450 nm) ([1]; Table 4D, serum 8275): 1.595
optical density (450 nm) ([1]; Table 4D, serum 8276): 1.976
optical density (450 nm) ([1]; Table 4D, serum 8277): 0.735
optical density (450 nm) ([2]; Table 4D): 0.050

Leu-Arg-Lys-Ser-Arg-Arg-Phe-Ala-Gln-Ala-Leu-Pro-Val-Trp-Ala-Arg-Pro-Asp-Tyr-Asn [Peptide XVI] (LRKSRRFAQALPVWARPDYN; printed: Leu-Arg-Lys-Ser-Arg-Arg-Phe-Ala-Gln-Ala-Leu-Pro-Val-Trp-Ala-Arg-Pro-Asp-Tyr-Asn)
optical density (450 nm) ([1]; Table 4B, serum 1): 2.435
optical density (450 nm) ([1]; Table 4B, serum 2): 1.239
optical density (450 nm) ([1]; Table 4B, serum 6): 1.595
optical density (450 nm) ([1]; Table 4B, serum 8): 1.599
optical density (450 nm) ([1]; Table 4B, serum 10): 2.847
optical density (450 nm) ([1]; Table 4B, serum 26): 1.522
optical density (450 nm) ([1]; Table 4B, serum 83): 2.221
optical density (450 nm) ([1]; Table 4B, serum 88): 2.519
optical density (450 nm) ([1]; Table 4B, serum 89): 1.530
optical density (450 nm) ([1]; Table 4B, serum 91): 2.169
optical density (450 nm) ([1]; Table 4B, serum 95): 1.484
optical density (450 nm) ([1]; Table 4B, serum 99): 2.045
optical density (450 nm) ([1]; Table 4B, serum 100): 1.637
optical density (450 nm) ([1]; Table 4B, serum 104): 0.942
optical density (450 nm) ([1]; Table 4B, serum 105): 2.186
optical density (450 nm) ([1]; Table 4B, serum 110): 1.484
optical density (450 nm) ([1]; Table 4B, serum 111): 1.465
optical density (450 nm) ([1]; Table 4B, serum 112): 1.084
optical density (450 nm) ([1]; Table 4B, serum 113): 2.535
optical density (450 nm) ([1]; Table 4B, serum 116): 1.918
optical density (450 nm) ([1]; Table 4B, serum 120): 2.332
optical density (450 nm) ([1]; Table 4B, serum 266): 2.262
optical density (450 nm) ([1]; Table 4B, serum 8247): 0.618
optical density (450 nm) ([1]; Table 4B, serum 11476): 2.197
optical density (450 nm) ([1]; Table 4B, serum 24758): 0.062
PEPTIDE ELISA (O.D.) ([1]; serum 0843): 1.444
PEPTIDE ELISA (O.D.) ([1]; serum 8240): 0.388
PEPTIDE ELISA (O.D.) ([1]; serum 8241): 2.456
PEPTIDE ELISA (O.D.) ([1]; serum 8242): 2.318
PEPTIDE ELISA (O.D.) ([1]; serum 8332): 2.130
PEPTIDE ELISA (O.D.) ([1]; serum 8339): 2.859
PEPTIDE ELISA (O.D.) ([1]; serum 8350): 2.249
PEPTIDE ELISA (O.D.) ([1]; serum 8377): 2.336
PEPTIDE ELISA (O.D.) ([1]; serum 8378): 1.602
PEPTIDE ELISA (O.D.) ([1]; serum 8388): 0.390
optical density (450 nm) ([2]; Table 4B): 0.067

Ser-Gln-His-Leu-Pro-Tyr-Ile-Glu-Gln-Gly-Met-Met-Leu-Ala-Glu-Gln-Phe-Lys-Gln-Lys [Biotinylated peptide XI] (SQHLPYIEQGMMLAEQFKQK; also: biotinylated) [probably the unbiotinylated peptide XI, acetylated at the amino terminus, coated directly]
optical density (450 nm) ([1]; Table 4A, serum 2): 0.090
optical density (450 nm) ([1]; Table 4A, serum 3): 0.443
optical density (450 nm) ([1]; Table 4A, serum 4): 0.473
optical density (450 nm) ([1]; Table 4A, serum 6): 0.053
optical density (450 nm) ([1]; Table 4A, serum 8): 1.275
optical density (450 nm) ([1]; Table 4A, serum 10): 0.764
optical density (450 nm) ([1]; Table 4A, serum 11): 0.569
optical density (450 nm) ([1]; Table 4A, serum 23): 0.775
optical density (450 nm) ([1]; Table 4A, serum 31): 0.497
optical density (450 nm) ([1]; Table 4A, serum 33): 0.832
optical density (450 nm) ([1]; Table 4A, serum 49): 0.515
optical density (450 nm) ([1]; Table 4A, serum 77): 0.093
optical density (450 nm) ([2]; Table 4A): 0.053

TRKTSERSQPRGRRQPIPKV
optical density (450 nm) ([1]; Table 4E, serum 8272): 0.589
optical density (450 nm) ([1]; Table 4E, serum 8273): 0.294
optical density (450 nm) ([1]; Table 4E, serum 8274): 1.820
optical density (450 nm) ([1]; Table 4E, serum 8275): 1.728
optical density (450 nm) ([1]; Table 4E, serum 8276): 2.194
optical density (450 nm) ([1]; Table 4E, serum 8277): 0.770
optical density (450 nm) ([1]; Table 4E, serum 8278): 1.391
optical density (450 nm) ([1]; Table 4E, serum 8284): 0.040
optical density (450 nm) ([2]; Table 4E): 0.047
